Laboratory results as given in PubChem BioAssay (NCI).
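Where inhibition never reached the appropriate level, the endpoint shown equals the highest concentration tested. Otherwise, values were interpolated linearly from a five-concentration, 48-hour dose response in 96-well plates. Definition used: TGI = concentration required for complete inhibition of growth.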

Tests used:
Experiment in all cases: DTP human tumour cell line panel, 48 h
SR leukemia = tested on: SR leukemia
PC-3 prostate = tested on: PC-3 prostate
NCI-H460 lung = tested on: NCI-H460 lung
HOP-62 NSCLC = tested on: HOP-62 NSCLC
CCRF-CEM leukemia = tested on: CCRF-CEM leukemia
ACHN renal = tested on: ACHN renal
HCT-15 colon = tested on: HCT-15 colon
SF-295 CNS = tested on: SF-295 CNS
UACC-257 melanoma = tested on: UACC-257 melanoma
786-0 renal = tested on: 786-0 renal
MOLT-4 leukemia = tested on: MOLT-4 leukemia
COLO 205 colon = tested on: COLO 205 colon
SK-OV-3 ovarian = tested on: SK-OV-3 ovarian
NCI-H23 lung = tested on: NCI-H23 lung
TK-10 renal = tested on: TK-10 renal
NCI/ADR-RES ovarian = tested on: NCI/ADR-RES ovarian
A549 NSCLC = tested on: A549 NSCLC
OVCAR-4 ovarian = tested on: OVCAR-4 ovarian
OVCAR-5 ovarian = tested on: OVCAR-5 ovarian
SF-268 CNS = tested on: SF-268 CNS
SNB-19 CNS = tested on: SNB-19 CNS
HS 578T breast = tested on: HS 578T breast
K-562 leukemia = tested on: K-562 leukemia
SF-539 CNS = tested on: SF-539 CNS
MALME-3M melanoma = tested on: MALME-3M melanoma
HCT-116 colon = tested on: HCT-116 colon
BT-549 breast = tested on: BT-549 breast
UACC-62 melanoma = tested on: UACC-62 melanoma
MDA-MB-231 breast = tested on: MDA-MB-231 breast
SW-620 colon = tested on: SW-620 colon
MDA-N = tested on: MDA-N
A498 renal = tested on: A498 renal
SK-MEL-5 melanoma = tested on: SK-MEL-5 melanoma
RPMI-8226 leukemia = tested on: RPMI-8226 leukemia
SK-MEL-28 melanoma = tested on: SK-MEL-28 melanoma
NCI-H226 lung = tested on: NCI-H226 lung
NCI-H522 lung = tested on: NCI-H522 lung
SK-MEL-2 melanoma = tested on: SK-MEL-2 melanoma
MDA-MB-435 = tested on: MDA-MB-435
HL-60(TB) leukemia = tested on: HL-60(TB) leukemia
SN12C renal = tested on: SN12C renal
M14 melanoma = tested on: M14 melanoma
EKVX NSCLC = tested on: EKVX NSCLC
LOX IMVI melanoma = tested on: LOX IMVI melanoma
OVCAR-3 ovarian = tested on: OVCAR-3 ovarian
U251 CNS = tested on: U251 CNS
HOP-92 NSCLC = tested on: HOP-92 NSCLC
UO-31 renal = tested on: UO-31 renal
HT29 colon = tested on: HT29 colon
CAKI-1 renal = tested on: CAKI-1 renal
OVCAR-8 ovarian = tested on: OVCAR-8 ovarian
MCF7 breast = tested on: MCF7 breast
DU-145 prostate = tested on: DU-145 prostate
RXF 393 renal = tested on: RXF 393 renal
IGROV1 ovarian = tested on: IGROV1 ovarian
KM12 colon = tested on: KM12 colon
T-47D breast = tested on: T-47D breast
HCC-2998 colon = tested on: HCC-2998 colon

Work on `CCC(=O)O[C@H]1CC[C@H]2[C@@H]3CCC4=CC(=O)C=C[C@]4(O)[C@H]3CC[C@]12C` yielded a TGI (SR leukemia) of 80.5 µM, a TGI (PC-3 prostate) of 81.4 µM and a TGI (NCI-H460 lung) of 44.5 µM. For the same compound, the TGI (HOP-62 NSCLC) was > 100 µM, the TGI (CCRF-CEM leukemia) was 17.2 µM and the TGI (ACHN renal) was > 100 µM. The TGI (HCT-15 colon) was > 100 µM, the TGI (SF-295 CNS) was > 100 µM and the TGI (UACC-257 melanoma) was 26.8 µM. For the same compound, the TGI (786-0 renal) was > 100 µM, the TGI (MOLT-4 leukemia) was > 100 µM and the TGI (COLO 205 colon) was > 100 µM. For the same compound, the TGI (SK-OV-3 ovarian) was > 100 µM, the TGI (NCI-H23 lung) was > 100 µM and the TGI (TK-10 renal) was > 100 µM. The TGI (NCI/ADR-RES ovarian) was 91.9 µM, the TGI (A549 NSCLC) was > 100 µM and the TGI (OVCAR-4 ovarian) was > 100 µM. The TGI (OVCAR-5 ovarian) was > 100 µM, the TGI (SF-268 CNS) was > 100 µM and the TGI (SNB-19 CNS) was > 100 µM. The TGI (HS 578T breast) was > 100 µM, the TGI (K-562 leukemia) was > 100 µM and the TGI (SF-539 CNS) was > 100 µM. The TGI (MALME-3M melanoma) was > 100 µM, the TGI (HCT-116 colon) was > 100 µM and the TGI (BT-549 breast) was 57.5 µM. The TGI (UACC-62 melanoma) was > 100 µM, the TGI (MDA-MB-231 breast) was 58.5 µM and the TGI (SW-620 colon) was > 100 µM. For the same compound, the TGI (MDA-N) was > 100 µM, the TGI (A498 renal) was > 100 µM and the TGI (SK-MEL-5 melanoma) was 19.9 µM. For the same compound, the TGI (RPMI-8226 leukemia) was > 100 µM, the TGI (SK-MEL-28 melanoma) was > 100 µM and the TGI (NCI-H226 lung) was > 100 µM. The TGI (NCI-H522 lung) was > 100 µM, the TGI (SK-MEL-2 melanoma) was 45.8 µM and the TGI (MDA-MB-435) was 10.2 µM. The TGI (HL-60(TB) leukemia) was 37.6 µM, the TGI (SN12C renal) was > 100 µM and the TGI (M14 melanoma) was > 100 µM. For the same compound, the TGI (EKVX NSCLC) was > 100 µM, the TGI (LOX IMVI melanoma) was 69.5 µM and the TGI (OVCAR-3 ovarian) was 68.4 µM. The TGI (U251 CNS) was 47.4 µM, the TGI (HOP-92 NSCLC) was 82.1 µM and the TGI (UO-31 renal) was > 100 µM. For the same compound, the TGI (HT29 colon) was 58.4 µM, the TGI (CAKI-1 renal) was 88.4 µM and the TGI (OVCAR-8 ovarian) was > 100 µM. The TGI (MCF7 breast) was > 100 µM, the TGI (DU-145 prostate) was 64.5 µM and the TGI (RXF 393 renal) was 52.4 µM. The TGI (IGROV1 ovarian) was > 100 µM and the TGI (KM12 colon) was 85.1 µM.

`CC1=C(C)C(=O)C2=C(OCCO2)C1=O` gave a TGI (SR leukemia) of 20.3 µM, a TGI (PC-3 prostate) of 52.9 µM and a TGI (NCI-H460 lung) of 40.2 µM. For the same compound, the TGI (HOP-62 NSCLC) was 33.1 µM, the TGI (CCRF-CEM leukemia) was 8.84 µM and the TGI (ACHN renal) was 55.1 µM. The TGI (HCT-15 colon) was 35.1 µM, the TGI (T-47D breast) was 5.55 µM and the TGI (SF-295 CNS) was 33 µM. For the same compound, the TGI (UACC-257 melanoma) was 28.4 µM, the TGI (786-0 renal) was 44.6 µM and the TGI (MOLT-4 leukemia) was 7.2 µM. For the same compound, the TGI (COLO 205 colon) was 33.1 µM, the TGI (SK-OV-3 ovarian) was 34.6 µM and the TGI (NCI-H23 lung) was 48 µM. For the same compound, the TGI (TK-10 renal) was 32.6 µM, the TGI (NCI/ADR-RES ovarian) was 21.1 µM and the TGI (A549 NSCLC) was 43.1 µM. The TGI (OVCAR-5 ovarian) was 36.4 µM, the TGI (SF-268 CNS) was 69.7 µM and the TGI (SNB-19 CNS) was 32.7 µM. The TGI (SF-539 CNS) was 35 µM, the TGI (MALME-3M melanoma) was 29.7 µM and the TGI (HCT-116 colon) was 13.5 µM. For the same compound, the TGI (BT-549 breast) was 37.7 µM, the TGI (MDA-MB-231 breast) was 11.2 µM and the TGI (SW-620 colon) was 45.3 µM. It also gave a TGI (MDA-N) of 26.7 µM, a TGI (A498 renal) of 38.7 µM and a TGI (SK-MEL-5 melanoma) of 30.1 µM. For the same compound, the TGI (RPMI-8226 leukemia) was 7.08 µM, the TGI (SK-MEL-28 melanoma) was 30.2 µM and the TGI (NCI-H226 lung) was 45 µM. The TGI (HCC-2998 colon) was 35 µM, the TGI (MDA-MB-435) was 7.76 µM and the TGI (HL-60(TB) leukemia) was 15 µM. For the same compound, the TGI (SN12C renal) was 34.8 µM, the TGI (M14 melanoma) was 35.3 µM and the TGI (EKVX NSCLC) was 28.9 µM. The TGI (LOX IMVI melanoma) was 32.9 µM, the TGI (OVCAR-3 ovarian) was 32.3 µM and the TGI (U251 CNS) was 31.5 µM. The TGI (HOP-92 NSCLC) was 6.96 µM, the TGI (UO-31 renal) was 24 µM and the TGI (HT29 colon) was 44.3 µM. The TGI (CAKI-1 renal) was 32.7 µM, the TGI (OVCAR-8 ovarian) was 9.34 µM and the TGI (MCF7 breast) was 63.5 µM. It also gave a TGI (DU-145 prostate) of 34 µM, a TGI (IGROV1 ovarian) of 5.66 µM and a TGI (KM12 colon) of 34.2 µM.
